Reference: ChEMBL document CHEMBL1201862, “PubChem BioAssay data set” (2004)
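In this assay, cells in 96-well plates receive the compound at five concentrations for 48 hours. Endpoints are linearly interpolated between the surrounding concentrations. Here, GI50 denotes the concentration required for 50% inhibition of growth.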 Calls of active or inactive are those of the source. Cut-off read from the data, not from the text of the source: active = GI50 up to about 1.1 µM and inactive = higher.

How the values were obtained:
Experiment in all cases: growth of human tumour cells (NCI), 48 h
[1] = tested on: NCI-H522
[2] = tested on: OVCAR-8
[3] = tested on: UO-31
[4] = tested on: A549
[5] = tested on: OVCAR-5
[6] = tested on: LOX IMVI
[7] = tested on: SF-295
[8] = tested on: COLO 205
[9] = tested on: UACC-257
[10] = tested on: XF498
[11] = tested on: DMS-114
[12] = tested on: SK-MEL-5
[13] = tested on: RXF 631
[14] = tested on: TK-10
[15] = tested on: NCI-H460
[16] = tested on: A498
[17] = tested on: K562
[18] = tested on: SK-MEL-2
[19] = tested on: HCT-15
[20] = tested on: SW-620
[21] = tested on: OVCAR-3
[22] = tested on: CCRF-CEM
[23] = tested on: HOP-62
[24] = tested on: M19-MEL
[25] = tested on: SNB-19
[26] = tested on: HT-29
[27] = tested on: SNB-75
[28] = tested on: IGROV-1
[29] = tested on: RPMI-8226
[30] = tested on: ACHN
[31] = tested on: SN12C
[32] = tested on: SK-MEL-28
[33] = tested on: KM-20L2
[34] = tested on: KM12
[35] = tested on: UACC-62
[36] = tested on: DLD-1
[37] = tested on: NCI-H23
[38] = tested on: 786-0
[39] = tested on: HL-60
[40] = tested on: LXFL 529
[41] = tested on: Malme-3M
[42] = tested on: DMS-273
[43] = tested on: EKVX
[44] = tested on: M14
[45] = tested on: HOP-18
[46] = tested on: NCI-H226
[47] = tested on: SK-OV-3
[48] = tested on: SF-268
[49] = tested on: HCC 2998
[50] = tested on: CAKI-1
[51] = tested on: SF-539
[52] = tested on: OVCAR-4
[53] = tested on: MOLT-4
[54] = tested on: RXF 393

Compound: CCOc1ccc(NC(=O)CC2SC(Nc3ccc(Cl)cc3)=NC2=O)cc1 (centres undefined)
- GI50 [1]: > 10 µM (inactive)
- GI50 [2]: 49.7 µM (inactive)
- GI50 [3]: > 100 µM (inactive)
- GI50 [4]: > 100 µM (inactive)
- GI50 [5]: > 100 µM (inactive)
- GI50 [6]: > 100 µM (inactive)
- GI50 [7]: > 100 µM (inactive)
- GI50 [8]: > 100 µM (inactive)
- GI50 [9]: > 100 µM (inactive)
- GI50 [10]: > 100 µM (inactive)
- GI50 [11]: > 100 µM (inactive)
- GI50 [12]: > 100 µM (inactive)
- GI50 [13]: > 100 µM (inactive)
- GI50 [14]: > 100 µM (inactive)
- GI50 [15]: > 100 µM (inactive)
- GI50 [16]: 44.8 µM (inactive)
- GI50 [17]: 23.9 µM (inactive)
- GI50 [18]: > 100 µM (inactive)
- GI50 [19]: 95.3 µM
- GI50 [20]: 98.9 µM (inactive)
- GI50 [21]: > 100 µM (inactive)
- GI50 [22]: 18.3 µM (inactive)
- GI50 [23]: > 100 µM (inactive)
- GI50 [24]: > 100 µM (inactive)
- GI50 [25]: > 100 µM (inactive)
- GI50 [26]: > 100 µM (inactive)
- GI50 [27]: 29.8 µM (inactive)
- GI50 [28]: > 100 µM (inactive)
- GI50 [29]: 58.6 µM (inactive)
- GI50 [30]: > 100 µM (inactive)
- GI50 [31]: > 100 µM (inactive)
- GI50 [32]: > 100 µM (inactive)
- GI50 [33]: > 100 µM (inactive)
- GI50 [34]: > 100 µM (inactive)
- GI50 [35]: > 100 µM (inactive)
- GI50 [36]: 36 µM (inactive)
- GI50 [37]: > 100 µM (inactive)
- GI50 [38]: > 100 µM (inactive)
- GI50 [39]: 24.2 µM (inactive)
- GI50 [40]: 41.8 µM (inactive)
- GI50 [41]: > 100 µM (inactive)
- GI50 [42]: > 100 µM (inactive)
- GI50 [43]: > 100 µM (inactive)
- GI50 [44]: > 100 µM (inactive)
- GI50 [45]: > 100 µM (inactive)
- GI50 [46]: > 100 µM (inactive)
- GI50 [47]: > 100 µM (inactive)
- GI50 [48]: > 100 µM (inactive)
- GI50 [49]: > 100 µM (inactive)
- GI50 [50]: 21.5 µM (inactive)
- GI50 [51]: > 100 µM (inactive)
- GI50 [52]: > 100 µM (inactive)
- GI50 [53]: 29.4 µM (inactive)
- GI50 [54]: 40.8 µM (inactive)
